Source: patent US7629358B2, “Compounds useful for the treatment of diseases” (Pfizer Inc, priority 2004, dated 2009)

Test system: not given
Assay: not given
Settings: not given

| SMILES | melting point [°C] |
| --- | --- |
| CC(C)(Cc1cccc(C(=O)NCCc2ccc(Cl)cc2)c1)NC[C@H](O)c1ccc(O)c(CO)c1 [Example 33, N-[2-(4-chlorophenyl)ethyl]-3-{2-[(2R)-2-hydroxy-2-(4-hydroxy-3-hydroxymethyl-phenyl)ethylamino]-2-methylpropyl}benzamide] | 139 to 140 |

Molecular target: T1, human β2 adrenergic receptor (Homo sapiens, UniProt P07550)
T1 construct: expressed in transfected cells; host or cells: CHO (Chinese Hamster Ovary) cells, CHOhβ2
T1 sequence (P07550 whole entry): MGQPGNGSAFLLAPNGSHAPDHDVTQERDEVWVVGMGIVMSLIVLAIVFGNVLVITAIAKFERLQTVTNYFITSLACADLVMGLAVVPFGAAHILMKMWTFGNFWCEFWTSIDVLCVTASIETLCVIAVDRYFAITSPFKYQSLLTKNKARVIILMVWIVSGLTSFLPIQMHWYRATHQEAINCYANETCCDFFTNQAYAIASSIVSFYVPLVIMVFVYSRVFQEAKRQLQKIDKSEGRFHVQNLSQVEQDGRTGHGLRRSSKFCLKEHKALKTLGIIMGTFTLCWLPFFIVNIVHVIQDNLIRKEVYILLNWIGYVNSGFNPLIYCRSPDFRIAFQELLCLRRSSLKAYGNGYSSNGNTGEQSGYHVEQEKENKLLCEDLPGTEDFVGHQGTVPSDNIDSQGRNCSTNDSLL
Assay: cAMP Flashplate assay in CHO cells recombinantly expressing the human β2 adrenergic receptor
Assay type: cell-based
Settings: CHOhβ2 cells, 1 hour incubation, data as % Isoprenaline activity
Description: According to another alternative, the agonist potency for the β2 receptor of the compounds of the formula (1) may also be determined by the measure of the concentration of compound according to the present invention required to produce half maximal effect (EC50) for the β2 receptor.
10 mM/100% DMSO (dimethylsulfoxide) stock of compound is diluted to required top dose in 4% DMSO. This top dose is used to construct a 10-point semi-log dilution curve, all in 4% DMSO. Isoprenaline (Sigma, I-5627) was used as a standard in every experiment and for control wells on each plate. Data was expressed as % Isoprenaline response.
CHO (Chinese Hamster Ovary) cells recombinantly expressing the human β2 adrenergic receptor (from Kobilka et al., PNAS 84: 46-50, 1987 and Bouvier et al., Mol Pharmacol 33: 133-139 1988 CHOhβ2) were grown in Dulbeccos MEM/NUT MIX F12 (Gibco, 21331-020) supplemented with 10% foetal bovine serum (Sigma, F4135, Lot 90K8404 Exp 09/04), 2 mM glutamine (Sigma, G7513), 500 μg/ml geneticin (Sigma, G7034) and 10 μg/ml puromycin (Sigma, P8833). Cells were seeded to give about 90% confluency for testing.
25 μl/well each dose of compound was transferred into a cAMP-Flashplate® (NEN, SMP004B), with […] as basal controls and 100 nM Isoprenaline as max controls. This was diluted 1:2 by the addition of 25 μl/well PBS. Cells were trypsinised (0.25% Sigma, T4049), washed with PBS (Gibco, 14040-174) and resuspended in stimulation buffer (NEN, SMP004B) to give 1×10^6 cells/ml CHOhB2. Compounds were incubated with 50 μl/well cells for 1 hour. Cells were then lysed by the addition of 100 μl/well detection buffer (NEN, SMP004B) containing 0.18 μCi/ml ^125I-cAMP (NEN, NEX-130) and plates were incubated at room temperature for a further 2 hours. The amount of ^125I-cAMP bound to the Flashplate® was quantified using a Topcount NXT (Packard), normal counting efficiency for 1 minute. Dose-response data was expressed as % Isoprenaline activity and fitted using a four parameter sigmoid fit.

| SMILES | EC50 [nM] |
| --- | --- |
| C[C@H](Cc1cccc(CC(=O)NC2CCCCCC2)c1)NC[C@H](O)c1ccc(O)c(CO)c1 [Example 1, N-cycloheptyl-2-{3-[(2R)-2-({(2R)-2-hydroxy-2-[4-hydroxy-3-(hydroxymethyl)phenyl]ethyl}amino)propyl]phenyl}acetamide] | 0.143 |
| CC(C)(Cc1cccc(C(=O)NCCC23CC4CC(CC(C4)C2)C3)c1)NC[C@H](O)c1ccc(O)c(CO)c1 [Example 114] | 0.134 |
| C[C@H](Cc1cccc(CC(=O)N(C)CCC2CCCCC2)c1)NC[C@H](O)c1ccc(O)c(CO)c1 [Example 16, N-(2-cyclohexylethyl)-2-{3-[(2R)-2-({(2R)-2-hydroxy-2-[4-hydroxy-3-(hydroxymethyl)phenyl]ethyl}amino)propyl]phenyl}-N-methylacetamide] | 0.874 |
| O=C(Cc1cccc(CCNC[C@H](O)c2ccc(O)c(CO)c2)c1)NCCc1ccccc1 [Example 46, 2-{3-[2-({(2R)-2-hydroxy-2-[4-hydroxy-3-(hydroxymethyl)phenyl]ethyl}amino)ethyl]phenyl}-N-(2-phenylethyl)acetamide] | 0.838 |
| CC(C)(Cc1cccc(CC(=O)NCc2cc(C(F)(F)F)ccc2F)c1)NC[C@H](O)c1ccc(O)c(CO)c1 [Example 24, N-[2-fluoro-5-(trifluoromethyl)benzyl]-2-{3-[2-({(2R)-2-hydroxy-2-[4-hydroxy-3-(hydroxymethyl)phenyl]ethyl}amino)-2-methylpropyl]phenyl}acetamide] | 0.15 |
| C[C@H](Cc1cccc(CC(=O)NCC23CC4CC(CC(C4)C2)C3)c1)NC[C@H](O)c1ccc(O)c(CO)c1 [Example 14, N-(1-adamantylmethyl)-2-{3-[(2R)-2-({(2R)-2-hydroxy-2-[4-hydroxy-3-(hydroxymethyl)phenyl]ethyl}amino)propyl]phenyl}acetamide] | 0.064 |
| CC(C)(Cc1cccc(C(=O)NCC2Cc3ccccc3C2)c1)NC[C@H](O)c1ccc(O)c(CO)c1 [Example 66] | 1.16 |
| CC(C)(Cc1cccc(C(=O)NCCc2cccc(F)c2)c1)NC[C@H](O)c1ccc(O)c(CO)c1 [Example 63, N-[2-(3-Fluorophenyl)ethyl]-3-[2-({(2R)-2-hydroxy-2-[4-hydroxy-3-(hydroxymethyl)phenyl]ethyl}amino)-2-methylpropyl]benzamide] | 0.075 |
| C[C@H](Cc1cccc(C(=O)NCc2ccc(S(N)(=O)=O)cc2)c1)NC[C@H](O)c1ccc(O)c(CO)c1 [Example 62, N-[4-(aminosulfonyl)benzyl]-3-[(2R)-2-({(2R)-2-hydroxy-2-[4-hydroxy-3-(hydroxymethyl)phenyl]ethyl}amino)propyl]benzamide] | 0.444 |
| CC(C)(Cc1cccc(CC(=O)N2CCc3ccccc3C2)c1)NC[C@H](O)c1ccc(O)c(CO)c1 [Example 23, 4{(1R)-2-[(2-{3-[2-(3,4-dihydroisoquinolin-2(1H)-yl)-2-oxoethyl]phenyl}-1,1-dimethylethyl)amino]-1-hydroxyethyl}-2-(hydroxymethyl)phenol] | 0.08 |
| CC(C)(Cc1cccc(C(=O)NCCc2ccccc2C(F)(F)F)c1)NC[C@H](O)c1ccc(O)c(CO)c1 [Example 102] | 0.1 |
| Cc1cccc(CCNC(=O)c2cccc(CC(C)(C)NC[C@H](O)c3ccc(O)c(CO)c3)c2)n1 [Example 88] | 0.434 |
